{"source": "patent US20050256077A1", "about": "“Gastrointestinal stem cells and uses thereof” (priority 2004, published 2005)", "key": {"[1]": {"conditions": "cited from earlier work"}, "[2]": {"conditions": "cited from earlier work", "remark": "listed apart in the source"}, "intestinal crypts [3]": {"tested_on": "intestinal crypts", "assay": "Model I: luminal delivery of cytotoxic drugs to clamped jejunal segment, crypt apoptosis by histology", "type": "in vivo, mouse", "conditions": "for apoptosis in experimental segments / apoptosis in upstream segments: luminal delivery to clamped jejunal segment for 4 hr, 20 mg/kg BW; for apoptosis in experimental segments: apoptotic bodies in H & E sections; for apoptosis in upstream segments: segment immediately upstream", "source_text": "A surgical model was developed that is simple and rapid enough to allow appropriate numbers of animals to be studied in a reasonable time period. To this end, a procedure was developed in which a 1 cm piece of jejunum is flushed and then clamped (with microvascular serrefines), the drug or vehicle was delivered to the clamped segment via a 27 gauge needle, the bowel is returned to the abdominal cavity and the incisions in both the peritoneum and the skin are sutured closed. The animal was allowed to regain consciousness for 4-6 hr. At the end of this time there was another brief isofluorane anesthesia, during which the original incisions are opened and the clamps are removed. In addition, at this time the location of the clamps was indicated by a piece of 5-0 silk.\nVarious doses of DOX and Bleomycin were delivered to clamped segments for 4 hr, then tissue from the experimental segment as well as a segment immediately upstream was collected for histology. Tissue sections were stained with H & E, and apoptosis was assessed by the presence of apoptotic bodies. For quantifying apoptotic cells, 10 crypts per animal (n=3) were selected and scored by a skilled artisan blinded to the experimental conditions. […] Thus, Bleomycin was being absorbed into the circulation and, thus, affecting the entire intestine. In contrast, DOX appears to be capable of local action, thus creating a suitable model for subsequent experiments.\nIn order to verify that luminally delivered DOX was affecting the stem cell region, the position of apoptotic cells within the crypt was scored. […] This is very similar to the pattern that has been previously reported following IP delivery of DOX (Ijiri and Potten, 1987)."}, "[4]": {"conditions": "mouse, in vivo; cited from earlier work"}, "intestinal crypts [5]": {"tested_on": "intestinal crypts", "type": "in vivo, mice", "method": "The following model is preferable for luminal delivery of stem cell preparations, particularly wherein a second clamping procedure, such as the day after the damage, is preferable. As there are already published studies on IP delivery of DOX to mice (Ijiri and Potten, 1987; Moore, 1985), minimal additional studies were needed to establish this model. However, although it was already known that an IP dose of 20 mg/kg/BW DOX elicits apoptosis predominantly in the stem cell zone (Ijiri and Potten, 1987) and ablates approximately 50% of the stem cells (Moore, 1985), a complete time course of apoptosis has not been reported. Considering the nature of the timing of stem cell delivery, an apoptosis time course was performed in FIG. 6. […] In contrast, gross morphologic damage is not seen until 72 hr and appears maximal by 96 hr (FIG. 7). By 120 hr the beginning of crypt regeneration from the remaining stem cells is apparent (not shown). Based on these findings, after DOX the optimal time for luminal delivery of stem cells is 6 hr. […] At the same time, a significant proportion of the endogenous stem cells have been ablated, creating an opportunity for the exogenous cells to engraft. The clamping procedure after IP delivery of DOX has been performed successfully, and no evidence was found of gross bleeding into the clamped segment. There is, however, significant morbidity after the IP DOX. For example, body weights initially fall to a similar extent to that after luminal DOX, but in the case of IP DOX they never recover. Although our 10-day survival data after IP DOX is 100%, the literature predicts 40-50% mortality over the next 2 weeks (Oredipe et al., 2003). However, if the myelosuppressive effects of DOX are countered by administration of the drug Swainsonine (Sigma-Aldrich), for example the mice can be maintained until at least 70 days with only 36% mortality (Oredipe et al., 2003)."}, "[6]": {"tested_on": "crypts of the mouse small intestine", "conditions": "cited from earlier work; for i.p. dose that causes sterilization of 50% of crypts: dose-response data of Moore (1985)"}, "[7]": {"conditions": "cited from earlier work", "remark": "listed apart in the source"}, "[8]": {"conditions": "mice; cited from earlier work"}, "bone marrow": {"tested_on": "bone marrow", "conditions": "administered systemically (Goodman and Gilman, 1975); cited from earlier work"}, "i.p. LD50 (literature)": {"assay": "i.p. LD50 (literature)", "type": "in vivo", "conditions": "mice"}}}
{"compound": "O[C@H]1[C@H]2[C@H](O)CCCN2C[C@H]1O", "note": "[Swainsonine]", "values": [{"measurement": "mortality until at least 70 days", "setting": "[1]; Swainsonine given to counter myelosuppressive effects of DOX", "value": 36, "unit": "%"}]}
{"compound": "COc1cccc2c1C(=O)c1c(O)c3c(c(O)c1C2=O)C[C@@](O)(C(=O)CO)C[C@@H]3O[C@H]1C[C@H](N)[C@H](O)[C@H](C)O1", "note": "[DOX, doxorubicin]", "values": [{"measurement": "removed by the liver in a single pass", "setting": "[2]", "value": 60, "unit": "%"}, {"measurement": "damage to the basement membrane or to the underlying stromal tissue", "setting": "intestinal crypts [3]; luminal DOX, light and EM levels", "value": "no evidence of damage"}, {"measurement": "apoptosis in experimental segments", "setting": "intestinal crypts [3]", "value": "significant apoptosis"}, {"measurement": "apoptosis in upstream segments", "setting": "intestinal crypts [3]", "value": "minimal effects"}, {"measurement": "half-life", "setting": "[4]", "value": 35, "unit": "min"}, {"measurement": "time of apoptosis peak", "setting": "intestinal crypts [5]; IP DOX 20 mg/kg BW", "value": 6, "unit": "h"}, {"measurement": "time of beginning of crypt regeneration from remaining stem cells", "setting": "intestinal crypts [5]; IP DOX 20 mg/kg BW", "value": "≤ 120", "unit": "h"}, {"measurement": "time of maximal gross morphologic damage", "setting": "intestinal crypts [5]; IP DOX 20 mg/kg BW", "value": "≤ 96", "unit": "hr"}, {"measurement": "time until gross morphologic damage is seen", "setting": "intestinal crypts [5]; IP DOX 20 mg/kg BW", "value": 72, "unit": "hr"}, {"measurement": "apoptosis by 24 hr", "setting": "intestinal crypts [5]; IP DOX 20 mg/kg BW, 24 hr", "value": "greatly reduced"}, {"measurement": "body weights", "setting": "intestinal crypts [5]; mouse, in vivo, ip", "value": "never recover"}, {"measurement": "10-day survival", "setting": "intestinal crypts [5]; mouse, in vivo, ip, 10 day", "value": 100, "unit": "%"}, {"measurement": "small intestinal crypts sterilized", "setting": "[6]; IP 20 mg/kg BW (Moore, 1985)", "value": "approximately 50%"}, {"measurement": "stem cells ablated", "setting": "[6]; IP dose of 20 mg/kg/BW (Moore, 1985)", "value": "approximately 50%"}, {"measurement": "i.p. dose that causes sterilization of 50% of crypts", "setting": "[6]", "value": 15, "unit": "mg/kg"}, {"measurement": "solubility in normal saline", "setting": "[7]", "value": "soluble in normal saline"}, {"measurement": "mortality over the next 2 weeks", "setting": "[1]; after IP DOX, beyond 10 days, literature prediction", "value": "40-50%"}]}
{"compound": "Bleomycin", "values": [{"measurement": "i.p. LD50", "setting": "[8]", "value": 210, "unit": "mg/kg"}, {"measurement": "apoptosis in experimental segments", "setting": "intestinal crypts [3]", "value": "caused apoptosis"}, {"measurement": "apoptosis in upstream segments", "setting": "intestinal crypts [3]", "value": "caused apoptosis in both experimental segment and upstream segments"}, {"measurement": "toxicity to bone marrow", "setting": "bone marrow", "value": "minimal toxicity to bone marrow"}, {"measurement": "i.p. dose that causes sterilization of 50% of crypts", "setting": "[6]", "value": 60, "unit": "mg/kg"}, {"measurement": "solubility in normal saline", "setting": "[7]", "value": "soluble in normal saline"}, {"measurement": "i.p. LD50 relative to i.p. dose causing sterilization of 50% of intestinal crypts", "setting": "i.p. LD50 (literature)", "value": "~4", "unit": "fold"}]}
